Measurements reported in patent US20260317344A1, “EGFR INHIBITORS FOR TREATING DISEASE” (BLOSSOMHILL THERAPEUTICS, INC., priority 2023, published 2026).
Where two headings read alike, the source gives them in different places.

Experiments:
Assay type in all cases: cell-based
[1] = biological target: T1, pEGFR, PC-9 cells (d746-750 EGFR) (Homo sapiens, UniProt P00533, DEL746-750); assay: Cellular EGFR phosphorylation assay (LANCE Ultra TR-FRET) in PC-9 cells
T1 construct: pEGFR (Tyr1068) TR-FRET
T1 sequence (P00533 with tags, fused parts or gaps DEL746-750): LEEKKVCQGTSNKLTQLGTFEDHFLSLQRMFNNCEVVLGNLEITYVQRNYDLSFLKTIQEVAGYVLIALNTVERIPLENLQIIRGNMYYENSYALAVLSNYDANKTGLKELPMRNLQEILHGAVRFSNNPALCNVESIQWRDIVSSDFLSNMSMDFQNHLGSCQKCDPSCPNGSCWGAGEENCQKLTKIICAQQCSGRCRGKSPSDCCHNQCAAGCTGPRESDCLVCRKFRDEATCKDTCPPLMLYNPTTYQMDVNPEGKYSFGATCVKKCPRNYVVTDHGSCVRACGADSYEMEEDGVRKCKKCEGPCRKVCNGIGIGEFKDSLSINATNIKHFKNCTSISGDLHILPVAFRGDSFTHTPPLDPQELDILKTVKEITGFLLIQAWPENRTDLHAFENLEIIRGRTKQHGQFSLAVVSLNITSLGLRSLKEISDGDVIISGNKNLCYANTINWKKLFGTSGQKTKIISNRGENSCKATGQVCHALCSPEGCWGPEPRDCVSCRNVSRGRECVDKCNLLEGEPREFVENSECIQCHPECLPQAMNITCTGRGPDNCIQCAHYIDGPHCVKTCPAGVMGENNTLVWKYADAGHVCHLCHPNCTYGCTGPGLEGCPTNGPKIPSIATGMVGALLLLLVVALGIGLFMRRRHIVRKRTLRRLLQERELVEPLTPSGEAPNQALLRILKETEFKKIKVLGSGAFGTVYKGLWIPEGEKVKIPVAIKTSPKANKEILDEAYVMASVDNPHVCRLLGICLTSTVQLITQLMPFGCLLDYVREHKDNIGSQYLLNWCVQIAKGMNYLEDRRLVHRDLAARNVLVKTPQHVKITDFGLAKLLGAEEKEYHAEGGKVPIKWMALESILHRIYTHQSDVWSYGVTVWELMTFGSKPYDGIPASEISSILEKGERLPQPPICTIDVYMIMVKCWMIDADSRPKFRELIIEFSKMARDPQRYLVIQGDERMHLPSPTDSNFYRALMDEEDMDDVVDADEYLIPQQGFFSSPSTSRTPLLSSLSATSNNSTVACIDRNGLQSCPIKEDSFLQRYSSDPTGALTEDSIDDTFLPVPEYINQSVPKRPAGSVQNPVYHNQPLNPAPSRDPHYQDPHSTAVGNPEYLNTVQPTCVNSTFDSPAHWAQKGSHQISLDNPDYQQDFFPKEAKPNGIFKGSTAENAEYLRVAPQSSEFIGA
Summary of the method: (§1)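 Cells were treated with compound for 4 h at 37 °C as a 9-point, 3-fold titration; A431 cells were stimulated with 40 ng/mL EGF for the final 10 min. Phospho-EGFR (Tyr1068) in lysates was read by TR-FRET after 4-6 h antibody incubation, and IC50 values were fitted.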

[2] = biological target: T2, pEGFR, NCI-H1975 cells (L858R/T790M EGFR) (Homo sapiens, UniProt P00533, L858R/T790M); assay: Cellular EGFR phosphorylation assay (LANCE Ultra TR-FRET) in NCI-H1975 cells
T2 construct: pEGFR (Tyr1068) TR-FRET
T2 sequence (P00533 25-1210 T790M/L858R): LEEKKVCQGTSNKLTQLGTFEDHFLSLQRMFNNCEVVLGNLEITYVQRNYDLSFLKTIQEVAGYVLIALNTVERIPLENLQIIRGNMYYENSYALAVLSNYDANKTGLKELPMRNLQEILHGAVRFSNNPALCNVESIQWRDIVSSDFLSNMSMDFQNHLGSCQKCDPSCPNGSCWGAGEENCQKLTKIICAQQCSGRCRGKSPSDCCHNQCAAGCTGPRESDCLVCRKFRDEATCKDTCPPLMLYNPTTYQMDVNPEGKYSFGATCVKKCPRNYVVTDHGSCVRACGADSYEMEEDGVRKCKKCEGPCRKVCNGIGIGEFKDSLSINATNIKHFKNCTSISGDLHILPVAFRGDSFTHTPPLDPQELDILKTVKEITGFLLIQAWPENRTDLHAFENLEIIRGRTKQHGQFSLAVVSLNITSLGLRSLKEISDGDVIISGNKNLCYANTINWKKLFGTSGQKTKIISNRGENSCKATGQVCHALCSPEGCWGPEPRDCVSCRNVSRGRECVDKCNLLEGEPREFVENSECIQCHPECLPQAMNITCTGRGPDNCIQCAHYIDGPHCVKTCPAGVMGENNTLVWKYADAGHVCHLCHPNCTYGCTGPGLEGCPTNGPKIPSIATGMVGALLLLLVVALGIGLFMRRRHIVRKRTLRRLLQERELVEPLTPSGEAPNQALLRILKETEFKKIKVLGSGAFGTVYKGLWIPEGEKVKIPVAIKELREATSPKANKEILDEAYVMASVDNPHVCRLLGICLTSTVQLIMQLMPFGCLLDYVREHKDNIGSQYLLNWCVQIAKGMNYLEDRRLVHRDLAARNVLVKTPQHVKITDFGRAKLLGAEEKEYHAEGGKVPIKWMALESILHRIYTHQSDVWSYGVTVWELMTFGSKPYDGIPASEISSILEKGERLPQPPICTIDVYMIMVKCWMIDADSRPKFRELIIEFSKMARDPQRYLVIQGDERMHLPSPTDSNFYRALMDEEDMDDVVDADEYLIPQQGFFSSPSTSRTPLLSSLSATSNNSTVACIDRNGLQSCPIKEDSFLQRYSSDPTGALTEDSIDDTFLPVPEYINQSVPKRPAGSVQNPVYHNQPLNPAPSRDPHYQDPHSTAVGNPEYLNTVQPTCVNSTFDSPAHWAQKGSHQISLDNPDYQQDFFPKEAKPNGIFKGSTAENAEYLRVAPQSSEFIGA
Summary of the method: as §1

[3] = biological target: T3, pEGFR, A431 cells (wildtype EGFR) (Homo sapiens, UniProt P00533); assay: Cellular EGFR phosphorylation assay (LANCE Ultra TR-FRET) in A431 cells
T3 construct: pEGFR (Tyr1068) TR-FRET
T3 sequence (P00533 25-1210): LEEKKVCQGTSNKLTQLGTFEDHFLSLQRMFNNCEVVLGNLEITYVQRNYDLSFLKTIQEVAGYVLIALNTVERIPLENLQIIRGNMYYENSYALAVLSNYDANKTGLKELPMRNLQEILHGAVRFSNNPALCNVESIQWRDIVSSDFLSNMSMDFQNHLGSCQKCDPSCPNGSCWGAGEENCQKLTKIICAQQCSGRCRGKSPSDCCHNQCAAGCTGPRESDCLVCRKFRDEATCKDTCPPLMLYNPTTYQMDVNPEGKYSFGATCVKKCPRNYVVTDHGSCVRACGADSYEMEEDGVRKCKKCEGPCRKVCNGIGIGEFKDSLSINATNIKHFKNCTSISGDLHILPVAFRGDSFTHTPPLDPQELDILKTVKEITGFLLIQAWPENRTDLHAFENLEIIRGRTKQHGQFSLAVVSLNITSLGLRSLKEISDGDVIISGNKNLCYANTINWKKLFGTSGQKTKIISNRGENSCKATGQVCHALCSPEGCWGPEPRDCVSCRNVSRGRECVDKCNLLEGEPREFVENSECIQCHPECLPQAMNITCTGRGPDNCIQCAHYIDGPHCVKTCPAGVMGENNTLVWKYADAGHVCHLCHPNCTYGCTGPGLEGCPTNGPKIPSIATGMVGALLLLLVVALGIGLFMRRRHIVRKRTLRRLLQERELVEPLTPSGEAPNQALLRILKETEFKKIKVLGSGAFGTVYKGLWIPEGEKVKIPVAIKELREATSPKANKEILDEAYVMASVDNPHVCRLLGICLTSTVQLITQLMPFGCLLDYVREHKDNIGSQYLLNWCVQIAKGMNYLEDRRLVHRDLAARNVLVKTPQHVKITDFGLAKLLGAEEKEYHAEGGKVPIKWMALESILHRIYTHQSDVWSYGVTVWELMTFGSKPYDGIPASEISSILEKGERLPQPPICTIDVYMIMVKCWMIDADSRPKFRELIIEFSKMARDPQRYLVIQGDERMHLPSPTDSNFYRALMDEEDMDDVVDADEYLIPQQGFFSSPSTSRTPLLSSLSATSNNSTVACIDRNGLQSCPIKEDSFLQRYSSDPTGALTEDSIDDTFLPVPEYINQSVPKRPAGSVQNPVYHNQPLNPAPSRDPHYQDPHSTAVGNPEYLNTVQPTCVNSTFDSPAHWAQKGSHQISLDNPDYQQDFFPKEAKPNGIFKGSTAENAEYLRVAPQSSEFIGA
Summary of the method: as §1

[4] = system: PC-9 cells; assay: 5-Day CellTiter Glo (CTG) cell proliferation assay, PC-9; conditions: Homo sapiens; PC-9 cells (d746-750 EGFR), 5-day CTG proliferation, 120 hours; read-out: PC-9 IC50
Summary of the method: (§2)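 Proliferation of EGFR-driven NSCLC cells was scored as CellTiter-Glo 2.0 luminescence after a 5-day (120 h) incubation with compounds in 9 doses. IC50 values came from the dose-response curves.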

[5] = system: NCI-H1975 cells; assay: 5-Day CellTiter Glo (CTG) cell proliferation assay, NCI-H1975; conditions: Homo sapiens; NCI-H1975 cells (L858R/T790M EGFR), 5-day CTG proliferation, 120 hours; read-out: H1975 IC50
Summary of the method: as §2

[6] = system: HCC827 cells; assay: 5-Day CellTiter Glo (CTG) cell proliferation assay, HCC827; conditions: Homo sapiens; HCC827 cells (d746-750 EGFR), 5-day CTG proliferation, 120 hours; read-out: HCC827 IC50
Summary of the method: as §2

[7] = system: BaF3 cells with engineered EGFR L858R/T790M/C797S; assay: 3-Day CellTiter Glo (CTG) cell proliferation assay, BaF3 EGFR L858R/T790M/C797S; conditions: Mus musculus, 3-day CTG proliferation, 72 hours
Method: (§3) 3-DAY CellTiter Glo (CTG) Cell Proliferation Assays (BaF3 Cell Lines)
(§4) Cell proliferation assays were carried out in BaF3 cells engineered with EGFR mutations. BaF3 cells with engineered EGFR L858R/T790M/C797S, EGFR L858R/C797S, or EGFR d746-750/T790M transgene, one thousand cells/50 μL per well were seeded in white 384-well plate, followed by treatment with indicated compounds in a 9-dose dilution series using TECAN d300e liquid dispenser. Cells were incubated with compounds for 72 hours at 37° C. and 5% CO2. Cell proliferation was measured using CellTiter-Gbo 2.0 luciferase-based ATP detection assay (Promega, Madison, WI) at 18 μL per well following the manufacturer's protocol. Plates were then read on a TECAN Sparks multimode microplate reader. Data was analyzed using GraphPad Prism 9 (GraphiPad Software, San Diego, CA) to obtain IC50 values.

[8] = system: BaF3 cells with engineered EGFR L858R/C797S; assay: 3-Day CellTiter Glo (CTG) cell proliferation assay, BaF3 EGFR L858R/C797S; conditions: Mus musculus, 3-day CTG proliferation, 72 hours
Method: as §3, §4

[9] = system: BaF3 cells with engineered EGFR d746-750/T790M; assay: 3-Day CellTiter Glo (CTG) cell proliferation assay, BaF3 EGFR d746-750/T790M; conditions: Mus musculus; BaF3 EGFR d746-750/T790M cells, 3-day CTG proliferation, 72 hours
Method: as §3, §4

[10] = 4 hours at 37° C., read-out: PC-9 pEGFR IC50
[11] = 4 hours at 37° C., read-out: H1975 pEGFR IC50
[12] = 4 hours at 37° C., 40 ng/mL EGF for the final 10 minutes, read-out: A431 pEGFR IC50

Compound | IC50 ([1]; read-out: PC-9 pEGFR IC50, 4 hours at 37° C.) [nM] | IC50 ([2]; read-out: H1975 pEGFR IC50, 4 hours at 37° C.) [nM] | IC50 ([3]; read-out: A431 pEGFR IC50, 4 hours at 37° C., 40 ng/mL EGF for the final 10 minutes) [nM] | IC50 [4] [nM] | IC50 [5] [nM] | IC50 [6] [nM] | IC50 [7] [nM] | IC50 [8] [nM] | IC50 [9] [nM] | IC50 [1, 10] [nM] | IC50 [2, 11] [nM] | IC50 [3, 12] [nM]
CCNc1nn([C@@H](C)CO)c2c1/C=C/c1n[nH]c3c(C)nc(cc13)-c1c(C)nn(C)c1O[C@@H](C)CN(C)C2 [Ex. 94, (2S)-2-[(10S,17E)-16-(ethylamino)-6,8,10,12,20-pentamethyl-2,8,10,11,12,13-hexahydro-14H-5,3-(azenometheno)tripyrazolo[3,4-f:3′,4′-j:4″,3″-n][1,4]oxazacyclopentadecin-14-yl]propan-1-ol] | 2.31 | 1.55 | 17.8 | 3.52 | 1.76 | 0.71 | 0.93 | 0.09 | 1.23 |  |  | 
CCOc1nn(C[C@H](C)O)c2c1/C=C/c1n[nH]c3cnc(cc13)-c1c(C)nn(C)c1O[C@@H](C)CN(C)C2 [Ex. 86, (2S)-1-[(10S,17E)-16-ethoxy-6,8,10,12-tetramethyl-2,8,10,11,12,13-hexahydro-14H-5,3-(azenometheno)tripyrazolo[3,4-f:3′,4′-j:4″,3″-n][1,4]oxazacyclopentadecin-14-yl]propan-2-ol] |  |  |  | 0.68 | 1.11 | 0.3 | 0.54 | 0.04 | 0.69 | 1.09 | 1.57 | 7.67
CCOc1nn(C[C@H](C)O)c2c1/C=C/c1n[nH]c3cnc(cc13)-c1c(C)nn(C)c1O[C@@H](C)CN(C1CC1)C2 [Ex. 107, (2S)-1-[(10S,17E)-12-cyclopropyl-16-ethoxy-6,8,10-trimethyl-2,8,10,11,12,13-hexahydro-14H-5,3-(azenometheno)tripyrazolo[3,4-f:3′,4′-j:4″,3″-n][1,4]oxazacyclopentadecin-14-yl]propan-2-ol] |  |  |  | 10.6 | 55.2 | 2.12 | 3.55 | 0.49 | 4 | 4.41 | 7.07 | 5.13
Cc1nn(CCO)c2c1/C=C/c1n[nH]c3c(C)nc(cc13)-c1c(C)nn(C)c1O[C@@H](C)CN(C(C)C)C2 [Ex. 109, 2-[(10S,17E)-6,8,10,16,20-pentamethyl-12-(propan-2-yl)-2,8,10,11,12,13-hexahydro-14H-5,3-(azenometheno)tripyrazolo[3,4-f3′,4′-j:4″,3″-n][1,4]oxazacyclopentadecin-14-yl]ethan-1-ol] |  |  |  | 5.53 | 2.65 | 0.9 | 1.17 | 0.24 | 1.17 | 2.91 | 1.79 | 3.52
CCOc1nn(CCO)c2c1/C=C/c1n[nH]c3c(C)nc(cc13)-c1c(C)nn(C)c1O[C@H](C)[C@H]1CCCN1C2 [Ex. 178] |  |  |  | 1.02 | 0.93 | 0.39 | 0.59 | 0.06 | 0.67 | 0.81 | 1.29 | 12.5
CCOc1nn([C@@H](C)CO)c2c1/C=C/c1n[nH]c3cnc(cc13)-c1c(C)nn(C)c1O[C@@H](C)CNC2 [Ex. 92, (2S)-2-[(10S,17E)-16-ethoxy-6,8,10-trimethyl-2,8,10,11,12,13-hexahydro-14H-5,3-(azenometheno)tripyrazolo[3,4-f:3′,4′-j:4″,3″-n][1,4]oxazacyclopentadecin-14-yl]propan-1-ol] |  |  |  | 43.4 | 68.5 | 5.37 | 4.12 | 0.74 | 29.7 | 12.6 | 14.1 | 33.4
Cc1nn(C)c2c1/C=C/c1n[nH]c3c(C)nc(cc13)-c1c(C)nn(C)c1O[C@@H](C)CN(C)C2 [Ex. 103, (10S,17E)-6,8,10,12,14,16,20-heptamethyl-2,10,11,12,13,14-hexahydro-8H-5,3-(azenometheno)tripyrazolo[3,4-f:3′,4′-j:4″,3″-n][1,4]oxazacyclopentadecine] |  |  |  | 9.94 | 11.2 | 2.13 | 1.87 | 0.56 | 13.6 | 9.78 | 3.44 | 13.4
CCOc1nn([C@H](C)CO)c2c1/C=C/c1n[nH]c3cnc(cc13)-c1c(C)nn(C)c1O[C@@H](C)CN(C)C2 [Ex. 88, (2R)-2-[(10S,17E)-16-ethoxy-6,8,10,12-tetramethyl-2,8,10,11,12,13-hexahydro-14H-5,3-(azenometheno)tripyrazolo[3,4-f:3′,4′-j:4″,3″-n][1,4]oxazacyclopentadecin-14-yl]propan-1-ol] |  |  |  | 2.52 | 5.09 | 0.39 | 0.86 | 0.09 | 1.56 | 1.62 | 2.17 | 11
CCOc1nn(CCO)c2c1/C=C/c1n[nH]c3cnc(cc13)-c1c(cnn1C)OCCN(C)C2 [Ex. 104, 2-[(17E)-16-ethoxy-6,12-dimethyl-2,6,10,11,12,13-hexahydro-14H-5,3-(azenometheno)tripyrazolo[3,4-f:3′,4′-j:3″,4″-n][1,4]oxazacyclopentadecin-14-yl]ethan-1-ol] |  |  |  | 59 |  | 13.9 | 36.2 | 6.89 | 63.9 | 39.8 | 50.5 | 146
CCN(C)c1nn([C@@H](C)CO)c2c1/C=C/c1n[nH]c3cnc(cc13)-c1c(C)nn(C)c1O[C@@H](C)CN(C)C2 [Ex. 105, (2S)-2-[(10S,17E)-16-[ethyl(methyl)amino]-6,8,10,12-tetramethyl-2,8,10,11,12,13-hexahydro-14H-5,3-(azenometheno)tripyrazolo[3,4-f:3′,4′-j:4″,3″-n][1,4]oxazacyclopentadecin-14-yl]propan-1-ol] |  |  |  | 209 |  | 52.1 | 147 | 15.5 | 700 | 319 | 274 | 365
CCN(C)c1nn([C@@H](C)CO)c2c1/C=C/c1n[nH]c3c(C)nc(cc13)-c1c(C)nn(C)c1O[C@@H](C)CN(C)C2 [Ex. 102, (2S)-2-[(10S,17E)-16-[ethyl(methyl)amino]-6,8,10,12,20-pentamethyl-2,8,10,11,12,13-hexahydro-14H-5,3-(azenometheno)tripyrazolo[3,4-f:3′,4′-j:4″,3″-n][1,4]oxazacyclopentadecin-14-yl]propan-1-ol] |  |  |  | 52.8 | 57 | 25.3 | 12.2 | 3.16 | 204 |  |  | 
C=CC(=O)N1Cc2c(c(OCC)nn2[C@@H](C)CO)/C=C/c2n[nH]c3cnc(cc23)-c2c(C)nn(C)c2O[C@@H](C)C1 [Ex. 115, 1-[(10S,17E)-16-ethoxy-14-[(2S)-1-hydroxypropan-2-yl]-6,8,10-trimethyl-2,8,10,11,13,14-hexahydro-12H-5,3-(azenometheno)tripyrazolo[3,4-f:3′,4′-j:4″,3″-n][1,4]oxazacyclopentadecin-12-yl]prop-2-en-1-one] |  |  |  | 3.35 | 6.13 | 1.47 | 31.9 | 9.04 | 3.05 |  |  | 
